Reference: PMC5572369 (Frontiers in Microbiology, 2017)

Key:
PrbP [1] = target: T1, PrbP (Candidatus Liberibacter asiaticus, UniProt A0ABM5NE52)
T1 construct: gene WSI_01420

PrbP [2] = target: T1, PrbP; remark: listed apart in the source

Q: Which “concentration for complete disruption of PrbP/PrplK complex” value (PrbP [1]) does the source give for `Cc1c(Cl)cccc1Nc1ccccc1C(=O)O` [tolfenamic acid] here?
A: Its value is 350 µM.

Q: And the “% decrease in transcription at 500 μM” value (PrbP [2])?
A: Its value is 79%.
